Data published in patent US20250171420A1 (Monte Rosa Therapeutics, Inc., priority 2022, published 2025).
Like-named read-outs stand apart in the source and are kept apart here.

How the values were obtained:
CK1α = molecular target: T1, CK1α (Homo sapiens, UniProt P48729); assay: CK1α NanoBit Assay (HiBiT-tagged CSNK1A1, HEK293 clonal lines); assay type: cell-based; conditions: HEK293 HiBiT-CSNK1A1/LgBiT cells, 24 h incubation
T1 construct: HEK293 clonal lines with CRISPR KI HiBiT tag on CSNK1A1
T1 sequence (P48729 whole entry): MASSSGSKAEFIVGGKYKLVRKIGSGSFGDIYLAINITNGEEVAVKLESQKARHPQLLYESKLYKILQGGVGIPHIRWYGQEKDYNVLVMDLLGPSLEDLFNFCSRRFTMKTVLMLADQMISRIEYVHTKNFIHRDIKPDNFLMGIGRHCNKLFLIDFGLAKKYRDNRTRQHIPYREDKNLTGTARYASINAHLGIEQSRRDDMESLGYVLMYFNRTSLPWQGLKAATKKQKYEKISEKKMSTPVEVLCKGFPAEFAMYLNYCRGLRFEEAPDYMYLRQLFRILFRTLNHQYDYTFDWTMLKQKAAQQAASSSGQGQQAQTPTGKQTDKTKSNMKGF
T1 sequence (Q96SW2 whole entry, further chain): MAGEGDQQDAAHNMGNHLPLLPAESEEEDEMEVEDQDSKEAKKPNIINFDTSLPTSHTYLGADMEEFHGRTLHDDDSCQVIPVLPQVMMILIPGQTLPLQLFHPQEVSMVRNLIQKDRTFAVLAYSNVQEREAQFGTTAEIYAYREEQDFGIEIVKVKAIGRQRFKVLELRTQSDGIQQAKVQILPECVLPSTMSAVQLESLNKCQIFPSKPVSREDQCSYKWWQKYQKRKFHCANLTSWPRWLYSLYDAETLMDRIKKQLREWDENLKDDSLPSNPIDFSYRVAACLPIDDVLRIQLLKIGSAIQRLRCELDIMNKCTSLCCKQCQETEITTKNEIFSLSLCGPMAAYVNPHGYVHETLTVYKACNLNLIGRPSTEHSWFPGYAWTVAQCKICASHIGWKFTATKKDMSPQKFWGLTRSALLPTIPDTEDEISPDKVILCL
T1 sequence (Q16531 2-1140 partner limits assumed): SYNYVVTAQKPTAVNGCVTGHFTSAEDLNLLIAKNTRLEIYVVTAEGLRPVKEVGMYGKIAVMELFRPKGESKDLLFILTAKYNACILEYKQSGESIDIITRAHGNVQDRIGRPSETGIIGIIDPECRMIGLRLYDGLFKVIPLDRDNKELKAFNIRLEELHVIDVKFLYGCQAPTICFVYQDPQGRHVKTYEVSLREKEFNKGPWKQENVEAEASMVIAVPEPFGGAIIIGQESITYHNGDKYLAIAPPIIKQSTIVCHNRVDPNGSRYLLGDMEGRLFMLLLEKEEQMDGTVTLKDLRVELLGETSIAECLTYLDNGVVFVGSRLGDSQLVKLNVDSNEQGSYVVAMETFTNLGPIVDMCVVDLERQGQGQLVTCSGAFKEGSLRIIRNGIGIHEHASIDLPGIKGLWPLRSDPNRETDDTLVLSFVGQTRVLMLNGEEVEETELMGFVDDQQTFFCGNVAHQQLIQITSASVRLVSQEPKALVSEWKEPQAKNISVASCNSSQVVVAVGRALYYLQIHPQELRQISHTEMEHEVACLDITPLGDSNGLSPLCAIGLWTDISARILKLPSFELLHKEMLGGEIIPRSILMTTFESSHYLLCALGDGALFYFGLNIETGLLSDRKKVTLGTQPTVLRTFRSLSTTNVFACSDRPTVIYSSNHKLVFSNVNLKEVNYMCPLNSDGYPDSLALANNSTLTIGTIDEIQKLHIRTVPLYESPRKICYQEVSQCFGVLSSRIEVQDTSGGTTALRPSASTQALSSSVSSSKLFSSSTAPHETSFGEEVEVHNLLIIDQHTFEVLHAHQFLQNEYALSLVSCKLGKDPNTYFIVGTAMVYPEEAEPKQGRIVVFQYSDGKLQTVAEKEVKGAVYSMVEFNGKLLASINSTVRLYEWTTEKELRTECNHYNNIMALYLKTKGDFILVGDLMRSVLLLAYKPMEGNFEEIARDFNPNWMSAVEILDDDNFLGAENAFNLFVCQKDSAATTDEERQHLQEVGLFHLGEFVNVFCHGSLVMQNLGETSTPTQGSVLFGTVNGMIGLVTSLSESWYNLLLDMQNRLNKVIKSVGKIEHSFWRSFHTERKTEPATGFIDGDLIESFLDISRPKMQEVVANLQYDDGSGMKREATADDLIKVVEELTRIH
Method in brief: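 HEK293 clones carrying a CRISPR knock-in HiBiT tag on CSNK1A1 and stably expressing LgBiT are treated with compound for 24 hours at 37° C, 5% CO2, then read by luminescence. Response is normalized as 100*(S−N)/(P−N) against plate negative and positive controls, and DC50 values are derived.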

CRBN/DDB1 = CRBN/DDB1 (Homo sapiens, UniProt Q96SW2); assay: HTRF binding assay (displacement of Cy5-thalidomide probe from CRBN/DDB1); conditions: CRBN/DDB1 2.5 nM, Cy5-Thalidomide 100 nM, 30 min; geometric mean; read-out: HTRF_Thali_Disp_DR_geo_IC50
CRBN/DDB1, sequence (Q96SW2 whole entry, species assumed): as the sequence (Q96SW2 whole entry, further chain) above
CRBN/DDB1, sequence (Q16531 whole entry partner, species assumed): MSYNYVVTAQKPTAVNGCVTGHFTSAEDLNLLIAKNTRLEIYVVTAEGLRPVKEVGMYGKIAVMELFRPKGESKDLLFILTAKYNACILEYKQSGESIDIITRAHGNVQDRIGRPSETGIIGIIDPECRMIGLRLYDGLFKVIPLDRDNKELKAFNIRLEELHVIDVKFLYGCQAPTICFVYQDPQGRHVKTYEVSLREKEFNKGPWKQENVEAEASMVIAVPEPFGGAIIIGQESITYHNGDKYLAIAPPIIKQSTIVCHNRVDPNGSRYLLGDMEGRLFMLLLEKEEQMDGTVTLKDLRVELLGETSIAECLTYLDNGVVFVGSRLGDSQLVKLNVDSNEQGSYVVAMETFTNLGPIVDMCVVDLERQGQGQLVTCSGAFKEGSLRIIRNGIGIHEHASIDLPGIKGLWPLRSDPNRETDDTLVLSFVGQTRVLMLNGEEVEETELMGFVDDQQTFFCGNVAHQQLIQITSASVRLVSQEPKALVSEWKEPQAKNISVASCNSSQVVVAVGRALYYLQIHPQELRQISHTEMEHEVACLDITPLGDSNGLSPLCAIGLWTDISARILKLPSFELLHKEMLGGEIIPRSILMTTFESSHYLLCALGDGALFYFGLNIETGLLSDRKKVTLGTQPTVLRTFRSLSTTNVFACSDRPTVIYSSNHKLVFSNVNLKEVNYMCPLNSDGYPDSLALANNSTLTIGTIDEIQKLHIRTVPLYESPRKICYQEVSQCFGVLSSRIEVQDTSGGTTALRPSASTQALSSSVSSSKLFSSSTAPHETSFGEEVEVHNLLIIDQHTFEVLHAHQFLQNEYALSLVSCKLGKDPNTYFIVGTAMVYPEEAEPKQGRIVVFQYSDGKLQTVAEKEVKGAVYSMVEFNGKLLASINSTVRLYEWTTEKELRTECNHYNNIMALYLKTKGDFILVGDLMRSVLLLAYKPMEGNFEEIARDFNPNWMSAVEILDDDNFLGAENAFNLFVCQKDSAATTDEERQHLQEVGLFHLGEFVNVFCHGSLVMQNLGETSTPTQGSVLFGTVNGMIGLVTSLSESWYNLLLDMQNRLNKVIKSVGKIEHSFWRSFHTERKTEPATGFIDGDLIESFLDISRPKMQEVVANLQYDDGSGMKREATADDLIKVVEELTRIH
Method in brief: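 HTRF displacement of Cy5-thalidomide (100 nM) from His-tagged CRBN/DDB1 (2.5 nM) with anti-His Tb cryptate in 20 mM HEPES, 20 mM NaCl, 0.2 mM TCEP, 0.2 mM EDTA, 0.005% Tween20. 10-point 1:3 series, 30 min ambient. 665/620 nm ratio fitted 4-parameter for IC50; Ki by Cheng-Prusoff from geometric-mean IC50.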

SKCO1 cell line = assay: Growth inhibition, CyQUANT Direct Cell Proliferation Assay, SKCO1; assay type: cell-based; conditions: Homo sapiens
Description: (§1) SKCO1, LS180, and LS174T cell lines were purchased from ATCC. CW2 cell line was purchased from Riken. GP2D cell line was purchased from Sigma/ECACC. All cell lines were cultured in manufacturer's recommended media at 37° C., 5% CO2. Briefly, cells were suspended in 200 μL of media and seeded at 300 to 1,800 cells per well in tissue culture treated 96-well plates with black walls and clear bottom. Plates were incubated overnight and initial (To) read was performed the following day using CyQUANT Direct Cell Proliferation Assay Kit (Thermo Fisher Scientific) according to manufacturer's protocol. All compounds were solubilized in DMSO and prepared at 3-fold serial dilution, using 9 points starting at 30 μM as highest concentration, administered to cells and incubated for 120 to 168 hours, at which point CyQUANT assay measurement was performed using Acumen Cellista instrument (Ex/Em 480/520 nm). Media-only wells were used as blank, and 0.3% DMSO was used as DMSO-treated cell control. Growth inhibition (percent response) was calculated using the following formula in Excel: “=if ([Compound treated Day N]>[Untreated Day 0, AVG], ([Compound treated Day N]−[Untreated Day 0, AVG])/([Untreated Day N]−[Untreated Day 0, AVG])*100, ([Compound Treated Day N]−[Untreated Day 0, AVG])/([Untreated Day 0, AVG])*100)”. GI50 is the response corresponding to the 50% of untreated control.
(§2) GI50 data are reported in Tables 4a, 4b, 4c, 4d, and 4e for compounds in Table 1. In Tables 4a, 4b, 4c, 4d, and 4e below, According to the code, A represents a GI50 value of ≤0.1 μM, B represents a GI50 value>0.1 μM and ≤1 μM, C represents an GI50 value>1 μM.

CW2 cell line = assay: Growth inhibition, CyQUANT Direct Cell Proliferation Assay, CW2; assay type: cell-based; conditions: Homo sapiens
Description: as §1, §2

GP2D cell line = assay: Growth inhibition, CyQUANT Direct Cell Proliferation Assay, GP2D; assay type: cell-based
Description: as §1, §2

LS180 cell line = assay: Growth inhibition, CyQUANT Direct Cell Proliferation Assay, LS180; assay type: cell-based; conditions: Homo sapiens
Description: as §1, §2

LS174T cell line = assay: Growth inhibition, CyQUANT Direct Cell Proliferation Assay, LS174T; assay type: cell-based; conditions: Homo sapiens
Description: as §1, §2

[1] = SK-CO-1, SKCO1, 120 to 168 hours, read-out: SKCO1 GI50
[2] = CW-2, CW2, 120 to 168 hours, read-out: CW2 GI50
[3] = GP2D, 120 to 168 hours, read-out: GP2D GI50
[4] = LS180, 120 to 168 hours, read-out: LS180 GI50
[5] = 120 to 168 hours, read-out: LS174T GI50
[6] = SK-CO-1, read-out: SKCO1 GI50 (μM)
[7] = LS180, read-out: LS180 GI50 (μM)

SMILES | DC50 (CK1α) | IC50 (CRBN/DDB1) | GI50 (SKCO1 cell line; [1]) | GI50 (CW2 cell line; [2]) | GI50 (GP2D cell line; [3]) | GI50 (LS180 cell line; [4]) | GI50 (LS174T cell line; [5]) | GI50 (SKCO1 cell line; [6]) | GI50 (CW2 cell line; CW-2, read-out: CW2 GI50 (μM)) | GI50 (GP2D cell line; GP2d, read-out: GP2D GI50 (μM)) | GI50 (LS180 cell line; [7]) | GI50 (LS174T cell line; read-out: LS174T GI50 (μM))
COC[C@H]1Cc2c(C3CC3)cccc2N1C(=O)Nc1ccc2c(c1)CN(C1CCC(=O)NC1=O)C2=O (stereo partly drawn) [Compound 332, (2R)-4-cyclopropyl-N-(2-(2,6-dioxopiperidin-3-yl)-1-oxoisoindolin-5-yl)-2-(methoxymethyl)indoline-1-carboxamide] | < 0.1 µM | 100 to 1000 nM | 0.1 to 1 µM | < 0.1 µM | 0.1 to 1 µM | 0.1 to 1 µM | 0.1 to 1 µM | – | – | – | – | –
N#Cc1ccc2c(c1)CCN2C(=O)Nc1ccc2c(c1)CN(C1CCC(=O)NC1=O)C2=O (centres unmarked) [Compound 142, 5-cyano-N-(2-(2,6-dioxopiperidin-3-yl)-1-oxoisoindolin-5-yl)indoline-1-carboxamide] | < 0.1 µM | 100 to 1000 nM | – | – | – | – | – | 0.1 to 1 µM | > 1 µM | 0.1 to 1 µM | 0.1 to 1 µM | 0.1 to 1 µM
Cc1cccc2c1CCN2C(=O)Nc1ccc2c(c1)CN(C1CCC(=O)NC1=O)C2=O (centres unmarked) [Compound 198, N-(2-(2,6-dioxopiperidin-3-yl)-1-oxoisoindolin-5-yl)-4-methylindoline-1-carboxamide] | < 0.1 µM | 100 to 1000 nM | < 0.1 µM | < 0.1 µM | < 0.1 µM | 0.1 to 1 µM | 0.1 to 1 µM | – | – | – | – | –
O=C1CCC(N2Cc3cc(NC(=O)N4CCc5c4cccc5-n4cccn4)ccc3C2=O)C(=O)N1 (centres unmarked) [Compound 340, N-(2-(2,6-dioxopiperidin-3-yl)-1-oxoisoindolin-5-yl)-4-(1H-pyrazol-1-yl)indoline-1-carboxamide] | < 0.1 µM | 100 to 1000 nM | < 0.1 µM | 0.1 to 1 µM | < 0.1 µM | 0.1 to 1 µM | < 0.1 µM | – | – | – | – | –
O=C1CCC(N2Cc3cc(NC(=O)N4CCc5c4cccc5C(F)(F)F)ccc3C2=O)C(=O)N1 (centres unmarked) [Compound 135, N-(2-(2,6-dioxopiperidin-3-yl)-1-oxoisoindolin-5-yl)-4-(trifluoromethyl)indoline-1-carboxamide] | < 0.1 µM | 100 to 1000 nM | – | – | – | – | – | < 0.1 µM | < 0.1 µM | < 0.1 µM | 0.1 to 1 µM | 0.1 to 1 µM
O=C1CCC(N2Cc3cc(NC(=O)N4CCc5c(C6CC6)cccc54)ccc3C2=O)C(=O)N1 (centres unmarked) [Compound 164, 4-cyclopropyl-N-(2-(2,6-dioxopiperidin-3-yl)-1-oxoisoindolin-5-yl)indoline-1-carboxamide] | < 0.1 µM | 100 to 1000 nM | < 0.1 µM | < 0.1 µM | < 0.1 µM | 0.1 to 1 µM | < 0.1 µM | – | – | – | – | –
COC[C@H]1CN(C(=O)Nc2ccc3c(c2)CN(C2CCC(=O)NC2=O)C3=O)c2cccc(C(F)(F)F)c21 (stereo partly drawn) [Compound 329, (3R)—N-(2-(2,6-dioxopiperidin-3-yl)-1-oxoisoindolin-5-yl)-3-(methoxymethyl)-4-(trifluoromethyl)indoline-1-carboxamide] | < 0.1 µM | 100 to 1000 nM | < 0.1 µM | 0.1 to 1 µM | 0.1 to 1 µM | 0.1 to 1 µM | 0.1 to 1 µM | – | – | – | – | –
Cc1ccc2c(c1)N(C(=O)Nc1ccc3c(c1)CN(C1CCC(=O)NC1=O)C3=O)CC2 (centres unmarked) [Compound 190, N-(2-(2,6-dioxopiperidin-3-yl)-1-oxoisoindolin-5-yl)-6-methylindoline-1-carboxamide] | < 0.1 µM | 100 to 1000 nM | – | – | – | – | – | 0.1 to 1 µM | 0.1 to 1 µM | 0.1 to 1 µM | 0.1 to 1 µM | 0.1 to 1 µM
C[C@H]1Cc2ccccc2N1C(=O)Nc1ccc2c(c1)CN(C1CCC(=O)NC1=O)C2=O (stereo partly drawn) [Compound 101, (2S)—N-(2-(2,6-dioxopiperidin-3-yl)-1-oxoisoindolin-5-yl)-2-methylindoline-1-carboxamide] | < 0.1 µM | 100 to 1000 nM | < 0.1 µM | < 0.1 µM | < 0.1 µM | < 0.1 µM | < 0.1 µM | – | – | – | – | –
COC[C@@H]1Cc2c(C3CC3)cccc2N1C(=O)Nc1ccc2c(c1)CN(C1CCC(=O)NC1=O)C2=O (stereo partly drawn) [Compound 339, (2S)-4-cyclopropyl-N-(2-(2,6-dioxopiperidin-3-yl)-1-oxoisoindolin-5-yl)-2-(methoxymethyl)indoline-1-carboxamide] | < 0.1 µM | 100 to 1000 nM | 0.1 to 1 µM | 0.1 to 1 µM | 0.1 to 1 µM | > 1 µM | 0.1 to 1 µM | – | – | – | – | –
O=C1CCC(N2Cc3cc(NC(=O)N4CCc5ccc(Cl)cc54)ccc3C2=O)C(=O)N1 (centres unmarked) [Compound 137, 6-chloro-N-(2-(2,6-dioxopiperidin-3-yl)-1-oxoisoindolin-5-yl)indoline-1-carboxamide] | < 0.1 µM | 100 to 1000 nM | – | – | – | – | – | 0.1 to 1 µM | < 0.1 µM | 0.1 to 1 µM | 0.1 to 1 µM | 0.1 to 1 µM
COCc1cccc2c1CCN2C(=O)Nc1ccc2c(c1)CN(C1CCC(=O)NC1=O)C2=O (centres unmarked) [Compound 341] | < 0.1 µM | 100 to 1000 nM | < 0.1 µM | 0.1 to 1 µM | < 0.1 µM | 0.1 to 1 µM | 0.1 to 1 µM | – | – | – | – | –
O=C1CCC(N2Cc3cc(NC(=O)N4CCc5cc(C(F)(F)F)ccc54)ccc3C2=O)C(=O)N1 (centres unmarked) [Compound 185, N-(2-(2,6-dioxopiperidin-3-yl)-1-oxoisoindolin-5-yl)-5-(trifluoromethyl)indoline-1-carboxamide] | < 0.1 µM | 100 to 1000 nM | – | – | – | – | – | 0.1 to 1 µM | 0.1 to 1 µM | 0.1 to 1 µM | 0.1 to 1 µM | 0.1 to 1 µM
CC1(C)CN(C(=O)Nc2ccc3c(c2)CN(C2CCC(=O)NC2=O)C3=O)c2ccccc21 (centres unmarked) [Compound 124, N-(2-(2,6-dioxopiperidin-3-yl)-1-oxoisoindolin-5-yl)-3,3-dimethylindoline-1-carboxamide] | < 0.1 µM | 100 to 1000 nM | – | – | – | – | – | < 0.1 µM | < 0.1 µM | < 0.1 µM | 0.1 to 1 µM | < 0.1 µM
